Common to all, as to type: in vivo
The test system of assay [1] is Setaria faberi (SETFA). Kind of assay: Example A pre-emergence herbicidal glasshouse test. Particulars: 312 h, Rate 250 g/ha, evaluated after 13 days, 100=total damage to plant, 0=no damage to plant. The essentials:
(§1)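 After sowing in standard soil, pots were cultivated 1 day (pre-emergence) or 8 days (post-emergence), then treated with an aqueous spray of the formulated active ingredient (acetone/water 50:50, 0.5% Tween 20). Phytotoxicity was assessed on a 0–100 scale at 13 days.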

Assay [2] has as its system Alopecurus myosuroides (ALOMY). Put plainly: Example A pre-emergence herbicidal glasshouse test. Particulars: 312 h, Rate 250 g/ha, evaluated after 13 days, 100=total damage to plant, 0=no damage to plant. The method in brief:
as §1

The test system of assay [3] is Amaranthus retroflexus (AMARE). Put plainly: Example A pre-emergence herbicidal glasshouse test. The settings on record: 312 h, Rate 250 g/ha, evaluated after 13 days, 100=total damage to plant, 0=no damage to plant. The method in brief: as §1
For assay [4], the system named is Avena fatua (AVEFA). Put plainly: Example A pre-emergence herbicidal glasshouse test. Particulars: 312 h, Rate 250 g/ha, evaluated after 13 days, 100=total damage to plant, 0=no damage to plant. The method in brief: as §1
Assay [5] concerns Echinochloa crus-galli (ECHCG). Put plainly: Example A pre-emergence herbicidal glasshouse test. The settings on record: 312 h, Rate 250 g/ha, evaluated after 13 days, 100=total damage to plant, 0=no damage to plant. The method in brief: as §1
Assay [6] relates to Digitaria sanguinalis (DIGSA). Kind of assay: Example B pre-emergence herbicidal greenhouse test. Particulars: 480 h, evaluated after 20 days, 100=total damage to plant, 0=no damage. As for the experimental part:
(§2) Seeds of a variety of test species were sown in standard soil in pots. After cultivation for one day (pre-emergence) or after 10 days cultivation (post-emergence) under controlled conditions in a glasshouse, the plants were sprayed with an aqueous spray solution derived from the formulation of the technical active ingredient in 0.6 ml acetone and 45 ml formulation solution containing 10.6% Emulsogen EL (Registry number 61791-12-6), 42.2% N-methylpyrrolidone, 42.2% dipropylene glycol monomethyl ether (Registry number 34590-94-8) and 0.2% X-77 (Registry number 11097-66-8). The test plants were then grown in a greenhouse under optimum conditions until, 15 days later for post-emergence and 20 days for pre-emergence, the test was evaluated (100=total damage to plant; 0=no damage to plant).
(§3) Alopecurus myosuroides (ALOMY), Avena fatua (AVEFA), Lolium perenne (LOLPE), Setaria faberi (SETFA), Digitaria sanguinalis (DIGSA), Echinochloa crus-galli (ECHCG)

The test system of assay [7] is Lolium perenne (LOLPE). Kind of assay: Example B pre-emergence herbicidal greenhouse test. The settings on record: 480 h, evaluated after 20 days, 100=total damage to plant, 0=no damage. How it is done: as §2, §3
Assay [8] has as its system Setaria faberi (SETFA). Kind of assay: Example B pre-emergence herbicidal greenhouse test. Particulars: 480 h, evaluated after 20 days, 100=total damage to plant, 0=no damage. As for the experimental part: as §2, §3
In assay [9] the test system is Alopecurus myosuroides (ALOMY). Put plainly: Example B pre-emergence herbicidal greenhouse test. Particulars: 480 h, evaluated after 20 days, 100=total damage to plant, 0=no damage. As for the experimental part:
as §2, §3

The subject of assay [10] is Avena fatua (AVEFA). Put plainly: Example B pre-emergence herbicidal greenhouse test. The settings on record: 480 h, evaluated after 20 days, 100=total damage to plant, 0=no damage. As for the experimental part:
as §2, §3

Assay [11] concerns Echinochloa crus-galli (ECHCG). Put plainly: Example B pre-emergence herbicidal greenhouse test. Particulars: 480 h, evaluated after 20 days, 100=total damage to plant, 0=no damage. As for the experimental part:
as §2, §3

The test system of assay [12] is Digitaria sanguinalis (DIGSA). Put plainly: Example B post-emergence herbicidal greenhouse test. The settings on record: 360 h, evaluated after 15 days, 100=total damage to plant, 0=no damage. As for the experimental part:
as §2, §3

Assay [13] relates to Lolium perenne (LOLPE). The description is as above. Particulars: 360 h, evaluated after 15 days, 100=total damage to plant, 0=no damage. How it is done:
as §2, §3

Assay [14] concerns Setaria faberi (SETFA). The description is as above. The settings on record: 360 h, evaluated after 15 days, 100=total damage to plant, 0=no damage. How it is done:
as §2, §3

In assay [15] the test system is Alopecurus myosuroides (ALOMY). The assay is described as above. The settings on record: 360 h, evaluated after 15 days, 100=total damage to plant, 0=no damage. As for the experimental part: as §2, §3
The test system of assay [16] is Avena fatua (AVEFA). Described as above. The settings on record: 360 h, evaluated after 15 days, 100=total damage to plant, 0=no damage. As for the experimental part:
as §2, §3

Assay [17] concerns Echinochloa crus-galli (ECHCG). The assay is described as above. Particulars: 360 h, evaluated after 15 days, 100=total damage to plant, 0=no damage. As for the experimental part: as §2, §3
Assay [18] deals with Setaria faberi (SETFA). Kind of assay: Example A post-emergence herbicidal glasshouse test. Particulars: 312 h, evaluated after 13 days, 100=total damage to plant, 0=no damage. The essentials: as §1
Assay [19] concerns Alopecurus myosuroides (ALOMY). Described as above. The settings on record: 312 h, evaluated after 13 days, 100=total damage to plant, 0=no damage. The method in brief: as §1
The test system of assay [20] is Amaranthus retroflexus (AMARE). Described as above. The settings on record: 312 h, evaluated after 13 days, 100=total damage to plant, 0=no damage. The method in brief: as §1
Assay [21] relates to Avena fatua (AVEFA). Described as above. The settings on record: 312 h, evaluated after 13 days, 100=total damage to plant, 0=no damage. The essentials: as §1
The subject of assay [22] is Echinochloa crus-galli (ECHCG). Described as above. The settings on record: 312 h, evaluated after 13 days, 100=total damage to plant, 0=no damage. The method in brief:
as §1

The pest or weed control is how far the test organism was held down. Read a high pest or weed control as strong suppression. As for `CCc1ccc(-c2ccc(Cl)cc2Cl)cc1C1=C(OC(=O)OC)[C@H]2CC[C@H](C2)C1=O` (single isomer, unassigned) [Compound P4, carbonic acid 3-(2′,4′-dichloro-4-ethylbiphen-3-yl)-4-oxo-bicyclo[3.2.1]oct-2-en-2-yl ester methyl ester], the pest or weed control at 250 g/ha is 100% in assay [1]; 80% in [2]; 40% in assay [3]; 50% in assay [4]; 90% in [5]; 100% in assay [6]. For the same compound, the pest or weed control at 250 g/ha was 90% in [7]; 100% in [8]; 90% in assay [9]; 70% in assay [10]; 100% in [11]; 100% in assay [18]. Moreover, the pest or weed control at 250 g/ha in assay [19] was found to be 100%; in assay [20] it was 0%; in [21], 90%; in [22], 100%. In addition, the pest or weed control at 125 g/ha in assay [12] amounted to 100%; in assay [13] it was 90%; in [14] it was 100%; in [15] it was 100%; in [16] it was 80%; in assay [17], 100%.

Regarding `CCc1ccc(-c2ccc(Cl)cc2Cl)cc1C1=C(OC(C)=O)[C@H]2CC[C@H](C2)C1=O` (single isomer, unassigned) [Compound P7], the pest or weed control at 250 g/ha in assay [1] amounted to 100%; in [2], 40%; in assay [3] it was 0%; in assay [4] it was 90%; in [5], 100%; in [6] it was 80%. In addition, the pest or weed control at 250 g/ha in assay [7] stood at 70%; in [8], 80%; in assay [9], 70%; in assay [10] it was 30%; in [11], 50%; in [18], 100%. Besides, the pest or weed control at 250 g/ha is 90% in assay [19], 0% in [20], 100% in assay [21] and 100% in [22]. In addition, the pest or weed control at 125 g/ha stood at 90% in assay [12]; 70% in [13]; 100% in [14]; 60% in [15]; 80% in assay [16]; 100% in [17].

Turning to `CCc1ccc(-c2ccc(Cl)cc2C)cc1C1=C(O)[C@H]2CC[C@H](C2)C1=O` (single isomer, unassigned) [Compound T33], the pest or weed control at 250 g/ha in assay [1] was 90%; in assay [2], 60%; in assay [3], 0%; in [4] it was 20%; in [5] it was 90%; in assay [6], 70%. Moreover, the pest or weed control at 250 g/ha turned out to be 70% in assay [7]; 70% in [8]; 60% in assay [9]; 20% in [10]; 70% in assay [11]; 100% in assay [18]. For the same compound, the pest or weed control at 250 g/ha in assay [19] turned out to be 60%; in assay [20] it was 0%; in [21], 60%; in [22], 100%. In addition, the pest or weed control at 125 g/ha amounted to 60% in assay [12]; 20% in assay [13]; 100% in assay [14]; 60% in assay [15]; 70% in [16]; 100% in [17].

Take `CCc1ccc(-c2ccc(Cl)c(C#N)c2)cc1C1=C(O)[C@H]2CC[C@H](C2)C1=O` (single isomer, unassigned) [Compound T34]: the pest or weed control at 250 g/ha was 100% in assay [1]; 60% in [2]; 0% in assay [3]; 0% in assay [4]; 70% in assay [5]; 90% in assay [6]. The pest or weed control at 250 g/ha is 40% in assay [7]; 90% in assay [8]; 40% in assay [9]; 40% in assay [10]; 90% in assay [11]; 90% in assay [18]. Besides, the pest or weed control at 250 g/ha worked out at 70% in assay [19], 0% in assay [20], 70% in assay [21] and 100% in assay [22]. Besides, the pest or weed control at 125 g/ha in assay [12] worked out at 40%; in [13] it was 0%; in assay [14] it was 40%; in assay [15] it was 0%; in assay [16], 10%; in assay [17], 80%.

`CCc1ccc(-c2ccc(Cl)c(Cl)c2)cc1C1=C(O)[C@H]2CC[C@H](C2)C1=O` (single isomer, unassigned) [Compound T35]: the pest or weed control at 250 g/ha was determined as 90% in assay [1]; 20% in assay [2]; 0% in assay [3]; 20% in assay [4]; 90% in assay [5]; 70% in assay [6]. Also, the pest or weed control at 250 g/ha in [7] came to 20%; in [8] it was 40%; in assay [9] it was 10%; in assay [10], 30%; in assay [11], 50%; in assay [18], 100%. Also, the pest or weed control at 250 g/ha is 40% in assay [19], 0% in assay [20], 50% in [21] and 100% in [22]. In addition, the pest or weed control at 125 g/ha came to 70% in assay [12]; 20% in [13]; 70% in assay [14]; 0% in assay [15]; 10% in [16]; 80% in assay [17].

Turning to `CCc1ccc(-c2ccc(Cl)c(F)c2)cc1C1=C(O)[C@H]2CC[C@H](C2)C1=O` (single isomer, unassigned) [Compound T36], the pest or weed control at 250 g/ha in assay [1] was 100%; in assay [2], 70%; in [3] it was 0%; in [4], 50%; in [5], 100%; in assay [6], 100%. The pest or weed control at 250 g/ha in assay [7] was 90%; in assay [8] it was 90%; in [9], 70%; in assay [10] it was 60%; in assay [11], 100%; in [18], 100%. The pest or weed control at 250 g/ha turned out to be 90% in assay [19], 0% in [20], 100% in assay [21] and 100% in assay [22]. In addition, the pest or weed control at 125 g/ha in assay [12] came to 100%; in assay [13] it was 30%; in assay [14], 100%; in [15], 80%; in assay [16], 100%; in assay [17], 100%.

The values above are taken from patent US8828908B2, “Herbicidally active bicyclic 1,3-dione compounds” (Syngenta Limited, priority 2007, dated 2014).
